Reference: ChEMBL document CHEMBL1158915, “The Effect of Aridanin Isolated from Tetrapleuratetraptera and Serotonin on the Isolated Gastrointestinal Tract Smooth Muscles of Biomphalaria glabrata and Uptake of Calcium” (1990)
The source made the active and inactive calls. The calls are words filed in the database; no cut-off is given here.

Key:
Biomphalaria glabrata [1] = assay: Effect on Biomphalaria glabrata intestinal rhythmicity assessed as tissue contraction in presence of 8.5 to 320 nM methysergide; type: functional, tissue-based; details: Intestine
Biomphalaria glabrata [2] = assay: Effect on Biomphalaria glabrata intestinal rhythmicity assessed as tissue contraction in presence of 8.5 to 320 nM cyproheptadine; type: functional, tissue-based; details: Intestine
Esophagus [3] = assay: Effect on Biomphalaria glabrata esophageal rhythmicity assessed as tissue contraction in presence of 8.5 to 320 nM methysergide; type: functional, tissue-based
Esophagus [4] = assay: Effect on Biomphalaria glabrata esophageal rhythmicity assessed as potentiation in amplitude of contraction at 4.8 x 10^-10 M; type: functional, tissue-based
Esophagus [5] = assay: Effect on Biomphalaria glabrata esophageal rhythmicity assessed as increase in contraction at 1.0 x 10^-7 to 9.6 x 10^-6 M; type: functional
Esophagus [6] = assay: Effect on Biomphalaria glabrata esophageal rhythmicity assessed as increase in phasic contraction in relaxation phase at 1.92 x 10^-8 to 4 x 10^-7 M; type: functional, tissue-based
Esophagus [7] = assay: Effect on Biomphalaria glabrata esophageal rhythmicity assessed as tissue contraction in presence of 8.5 to 320 nM cyproheptadine; type: functional, tissue-based
Biomphalaria glabrata [8] = assay: Effect on Biomphalaria glabrata intestinal rhythmicity assessed as potentiation in amplitude of contraction at 4.8 x 10^-10 M; type: functional, tissue-based; details: Intestine
Biomphalaria glabrata [9] = assay: Effect on Biomphalaria glabrata intestinal rhythmicity assessed as increase in contraction at 1.2 x 10^-6 to 1.9 x 10^-5 M; type: functional, tissue-based; details: Intestine
Biomphalaria glabrata [10] = assay: Effect on Biomphalaria glabrata intestinal rhythmicity assessed as potentiation of tissue contracture in presence of 10 uM propranolol; type: functional, tissue-based; details: Intestine
Biomphalaria glabrata [11] = assay: Inhibition of calcium uptake in Biomphalaria glabrata assessed as available calcium in test solution at 0.125 ppm after 7 weeks; type: functional
Biomphalaria glabrata [12] = assay: Inhibition of calcium uptake in Biomphalaria glabrata assessed as available calcium in test solution at 0.25 ppm after 8 weeks; type: functional
Biomphalaria glabrata [13] = assay: Inhibition of calcium uptake in Biomphalaria glabrata assessed as available calcium in test solution at 0.25 ppm after 7 weeks; type: functional
Biomphalaria glabrata [14] = assay: Effect on Biomphalaria glabrata intestinal rhythmicity assessed as potentiation of tissue contracture in presence of 1 to 100 nM methysergide; type: functional, tissue-based; details: Intestine
Esophagus [15] = assay: Effect on Biomphalaria glabrata esophageal rhythmicity assessed as enhanced tissue contracture at 4.0 x 10^-7 to 3 x 10^-6 M; type: functional, tissue-based
Biomphalaria glabrata [16] = assay: Inhibition of calcium uptake in Biomphalaria glabrata assessed as available calcium in test solution at 0.125 ppm after 10 weeks; type: functional
Biomphalaria glabrata [17] = assay: Inhibition of calcium uptake in Biomphalaria glabrata assessed as available calcium in test solution at 0.125 ppm after 8 weeks; type: functional
Biomphalaria glabrata [18] = assay: Inhibition of calcium uptake in Biomphalaria glabrata assessed as available calcium in test solution at 0.125 ppm after 3 weeks; type: functional
Biomphalaria glabrata [19] = assay: Inhibition of calcium uptake in Biomphalaria glabrata assessed as available calcium in test solution at 0.125 ppm after 9 weeks; type: functional
Biomphalaria glabrata [20] = assay: Inhibition of calcium uptake in Biomphalaria glabrata assessed as available calcium in test solution at 0.25 ppm after 5 weeks; type: functional
Biomphalaria glabrata [21] = assay: Inhibition of calcium uptake in Biomphalaria glabrata assessed as available calcium in test solution at 0.125 ppm after 6 weeks; type: functional
Biomphalaria glabrata [22] = assay: Effect on Biomphalaria glabrata intestinal rhythmicity assessed as potentiation of tissue contracture in presence of 0.1 uM verapamil; type: functional, tissue-based; details: Intestine
Biomphalaria glabrata [23] = assay: Effect on Biomphalaria glabrata intestinal rhythmicity assessed as enhanced tissue contracture at 4.0 x 10^-7 to 3 x 10^-6 M; type: functional, tissue-based; details: Intestine
Biomphalaria glabrata [24] = assay: Inhibition of calcium uptake in Biomphalaria glabrata assessed as available calcium in test solution at 0.25 ppm after 9 weeks; type: functional
Biomphalaria glabrata [25] = assay: Inhibition of calcium uptake in Biomphalaria glabrata assessed as available calcium in test solution at 0.25 ppm after 4 weeks; type: functional
Biomphalaria glabrata [26] = assay: Inhibition of calcium uptake in Biomphalaria glabrata assessed as available calcium in test solution at 0.125 ppm after 1 week; type: functional
Esophagus [27] = assay: Effect on Biomphalaria glabrata esophageal rhythmicity assessed as potentiation of tissue contracture in presence of 1 to 100 nM methysergide; type: functional, tissue-based
Biomphalaria glabrata [28] = assay: Effect on Biomphalaria glabrata intestinal rhythmicity assessed as potentiation of tissue contracture in presence of 1 to 100 nM cyproheptadine; type: functional, tissue-based; details: Intestine
Esophagus [29] = assay: Effect on Biomphalaria glabrata esophageal rhythmicity assessed as potentiation of tissue contracture in presence of 0.1 mM lanthanum; type: functional, tissue-based
Biomphalaria glabrata [30] = assay: Inhibition of calcium uptake in Biomphalaria glabrata assessed as available calcium in test solution at 0.25 ppm after 10 weeks; type: functional
Biomphalaria glabrata [31] = assay: Effect on Biomphalaria glabrata intestinal rhythmicity assessed as potentiation of tissue contracture in presence of 1 uM atropine; type: functional, tissue-based; details: Intestine
Biomphalaria glabrata [32] = assay: Inhibition of calcium uptake in Biomphalaria glabrata assessed as available calcium in test solution at 0.25 ppm after 3 weeks; type: functional
Biomphalaria glabrata [33] = assay: Inhibition of calcium uptake in Biomphalaria glabrata assessed as available calcium in test solution at 0.25 ppm after 1 week; type: functional
Biomphalaria glabrata [34] = assay: Inhibition of calcium uptake in Biomphalaria glabrata assessed as available calcium in test solution at 0.125 ppm after 5 weeks; type: functional
Biomphalaria glabrata [35] = assay: Inhibition of calcium uptake in Biomphalaria glabrata assessed as available calcium in test solution at 0.125 ppm after 4 weeks; type: functional
Biomphalaria glabrata [36] = assay: Inhibition of calcium uptake in Biomphalaria glabrata assessed as available calcium in test solution at 0.125 ppm after 2 weeks; type: functional
Esophagus [37] = assay: Effect on Biomphalaria glabrata esophageal rhythmicity assessed as potentiation of tissue contracture in presence of 1 uM atropine; type: functional, tissue-based
Esophagus [38] = assay: Effect on Biomphalaria glabrata esophageal rhythmicity assessed as potentiation of tissue contracture in presence of 0.1 uM verapamil; type: functional
Esophagus [39] = assay: Effect on Biomphalaria glabrata esophageal rhythmicity assessed as potentiation of tissue contracture in presence of 10 uM propranolol; type: functional, tissue-based
Esophagus [40] = assay: Effect on Biomphalaria glabrata esophageal rhythmicity assessed as potentiation of tissue contracture in presence of 1 to 100 nM cyproheptadine; type: functional, tissue-based
Biomphalaria glabrata [41] = assay: Inhibition of calcium uptake in Biomphalaria glabrata assessed as available calcium in test solution at 0.25 ppm after 2 weeks; type: functional
Biomphalaria glabrata [42] = assay: Effect on Biomphalaria glabrata intestinal rhythmicity assessed as potentiation of tissue contracture in presence of 0.1 mM lanthanum; type: functional, tissue-based; details: Intestine
Biomphalaria glabrata [43] = assay: Inhibition of calcium uptake in Biomphalaria glabrata assessed as available calcium in test solution at 0.25 ppm after 6 weeks; type: functional

What does the source list for NCCc1c[nH]c2ccc(O)cc12?
Activity (Biomphalaria glabrata [1]): inactive; Activity (Biomphalaria glabrata [2]): inactive; Activity (Esophagus [3]): inactive; Activity (Esophagus [4]): Active; Activity (Esophagus [5]): Active; Activity (Esophagus [6]): Active; Activity (Esophagus [7]): inactive; Activity (Biomphalaria glabrata [8]): Active; Activity (Biomphalaria glabrata [9]): Active

With CC(=O)N[C@H]1[C@H](O[C@H]2CC[C@]3(C)[C@H]4CC=C5[C@H]6CC(C)(C)CC[C@]6(C(=O)O)CC[C@@]5(C)[C@]4(C)CC[C@H]3C2(C)C)O[C@H](CO)[C@@H](O)[C@@H]1O [ARIDANIN] as the molecule, how does the Activity (Biomphalaria glabrata [10]) read?
The Activity was “Active”.

What about the Activity (Biomphalaria glabrata [11]) of the same molecule?
Its Activity is 68.7 ppm.

And the Activity (Biomphalaria glabrata [12])?
Its Activity is 47.7 ppm.

And the Activity (Biomphalaria glabrata [13])?
The Activity was 73 ppm.

What about the Activity (Biomphalaria glabrata [14]) of the same molecule?
The Activity was “Active”.

And the Activity (Esophagus [15])?
Its Activity is “Active”.

And the Activity (Biomphalaria glabrata [16])?
Its Activity is 89 ppm.

And the Activity (Biomphalaria glabrata [17])?
The Activity was 49.8 ppm.

And the Activity (Biomphalaria glabrata [18])?
The Activity was 22.2 ppm.

And the Activity (Biomphalaria glabrata [19])?
Its Activity is 69.6 ppm.

What about the Activity (Biomphalaria glabrata [20]) of the same molecule?
Its Activity is 19 ppm.

And the Activity (Biomphalaria glabrata [21])?
Its Activity is 51.1 ppm.

What about the Activity (Biomphalaria glabrata [22]) of the same molecule?
Its Activity is “inactive”.

And the Activity (Biomphalaria glabrata [23])?
Its Activity is “Active”.

And the Activity (Biomphalaria glabrata [24])?
The Activity was 70.8 ppm.

And the Activity (Biomphalaria glabrata [25])?
Its Activity is 26.5 ppm.

And the Activity (Biomphalaria glabrata [26])?
The Activity was 28.2 ppm.

And the Activity (Esophagus [27])?
Its Activity is “Active”.

What about the Activity (Biomphalaria glabrata [28]) of the same molecule?
The Activity was “inactive”.

And the Activity (Esophagus [29])?
The Activity was “inactive”.

What about the Activity (Biomphalaria glabrata [30]) of the same molecule?
Its Activity is 90.4 ppm.

And the Activity (Biomphalaria glabrata [31])?
Its Activity is “Active”.

And the Activity (Biomphalaria glabrata [32])?
Its Activity is 24.2 ppm.

What about the Activity (Biomphalaria glabrata [33]) of the same molecule?
Its Activity is 28.3 ppm.

And the Activity (Biomphalaria glabrata [34])?
Its Activity is 18.7 ppm.

What about the Activity (Biomphalaria glabrata [35]) of the same molecule?
Its Activity is 28.9 ppm.

And the Activity (Biomphalaria glabrata [36])?
Its Activity is 19.9 ppm.

What about the Activity (Esophagus [37]) of the same molecule?
Its Activity is “Active”.

And the Activity (Esophagus [38])?
Its Activity is “inactive”.

What about the Activity (Esophagus [39]) of the same molecule?
Its Activity is “Active”.

And the Activity (Esophagus [40])?
Its Activity is “inactive”.

What about the Activity (Biomphalaria glabrata [41]) of the same molecule?
The Activity was 19.8 ppm.

And the Activity (Biomphalaria glabrata [42])?
Its Activity is “inactive”.

And the Activity (Biomphalaria glabrata [43])?
The Activity was 52.5 ppm.
